Where a SMILES comes first, the peptide text is derived from it.

The test addresses T1, KcsA-Kv1.1 T+F chimera (Streptomyces lividans, UniProt P0A334, R52A/G53E/A54E/P55A/G56E/A57S/Q58H/L59F/I60S/T61S/Y62I/R64D/L81M).
T1 sequence (P0A334 1-160 R52A/G53E/A54E/P55A/G56E/A57S/Q58H/L59F/I60S/T61S/Y62I/R64D/L81M): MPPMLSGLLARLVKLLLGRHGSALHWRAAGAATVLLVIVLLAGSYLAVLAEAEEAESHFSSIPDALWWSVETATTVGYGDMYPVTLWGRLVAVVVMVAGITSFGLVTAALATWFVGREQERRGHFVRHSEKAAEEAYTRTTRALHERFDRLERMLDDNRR
Briefly: Phage ELISA-binding assay, KcsA-Kv1.1 T+F. Details: species or system human Kv1.1 turret and filter in Streptomyces lividans KcsA. The note with it: toxin displayed on M13 phage; Fig. 8D. As for the experimental part: Phage display test solutions were prepared according to routine phage display protocols ([62]). Phosphorylated and annealed oligonucleotides encoding the peptide construct were ligated into linearized pAS62 phagemid vector (https://patents.google.com/patent/WO2022144560A1/en) at a vector/insert ratio of 1:3. The final phagemid construct harbored a signal sequence followed by the peptide of interest, a linker sequence ([…]), and the C-terminal part of the P3 coat protein (amino acids: 216-424 of NP_510891.1). Chemically competent XL1-Blue E. coli cells (2022249, Agilent) were transformed with the ligation product and then streaked onto ampicillin (100 μg/ml) containing LB/Amp plates and incubated for 16 h at 37 °C. A few clones were sequenced, and a single colony with confirmed target sequence was inoculated into 3 ml 2 YT medium supplemented with 100 μg/ml ampicillin and incubated at 37 °C until the culture reached midlog phase. The culture was infected with M13KO7 helper phage (N0315S, New England Biolabs) (phage/cell ratio 10:1) and was incubated for 30 min at 37 °C. The 3 ml culture was transferred into 200 ml 2YT medium, supplemented with 100 μg/ml ampicillin and 25 μg/ml kanamycin, and incubated overnight at 37 °C. The overnight cell culture (200 ml) was pelleted by centrifugation at 8000g for 10 min in 400 ml centrifuge tubes at 4 °C. […] The particle concentrations of phage solutions were determined using a NanoDrop One C (Thermo Fisher Scientific) spectrophotometer. The phage particle concentration was assessed according to the formula: (A268–A320) × 5 × 10^12 particles/ml ([62]). […]
Phage stock solutions were diluted to working concentration with phage resuspension buffer supplemented with 2 mM DDM. […] Following blocking, the wells were washed 4× with washing buffer (300 μl TBS-Tween, 0.1% v/v) using a Wellwash Versa microplate washer (Thermo Fisher Scientific); then 50 μl phage solution (in TBS-BSA-Tween, 0.1% v/v, 2 mM DDM) at determined phage concentration was added to the wells and incubated for 1 h at room temperature on a horizontal shaker. […]
Turning to `CC[C@H](C)[C@H](NC(=O)[C@H](CCC(=O)O)NC(=O)[C@@H](NC(=O)CN)C(C)C)C(=O)N[C@@H](CC(N)=O)C(=O)N[C@H](C(=O)N[C@@H](CCCCN)C(=O)N[C@H]1CSSC[C@@H]2NC(=O)[C@H](CCCCN)NC(=O)CNC(=O)[C@H](Cc3ccccc3)NC(=O)[C@H](CCCNC(=N)N)NC(=O)[C@H](CCSC)NC(=O)CNC(=O)[C@H](C)NC(=O)[C@H](CC(=O)O)NC(=O)[C@H](CCCCN)NC(=O)[C@@H]3CSSC[C@@H](C(=O)N[C@H](C(=O)N4CCC[C@H]4C(=O)N[C@@H](CCCCN)C(=O)O)[C@@H](C)O)NC(=O)[C@H](Cc4c[nH]cn4)NC(=O)[C@H](CSSC[C@H](NC(=O)[C@H](CCC(N)=O)NC(=O)[C@@H]4CCCN4C(=O)[C@H](CO)NC(=O)CNC(=O)[C@H](CO)NC1=O)C(=O)N[C@@H](CC(C)C)C(=O)N[C@@H](CCCCN)C(=O)N1CCC[C@H]1C(=O)N3)NC(=O)[C@H](CCCCN)NC(=O)[C@H](CCCNC(=N)N)NC(=O)[C@H](CC(N)=O)NC(=O)[C@H](CCSC)NC2=O)C(C)C` [KTX1, Kaliotoxin-1], the “phage binding to KcsA-Kv1.1 T+F, in words” value is “ShK > KTX1”.
As for `CC[C@H](C)[C@@H]1NC(=O)[C@@H]2CSSC[C@H](NC(=O)[C@H](CO)NC(=O)[C@@H](N)C(C)C)C(=O)N[C@@H]([C@@H](C)O)C(=O)NCC(=O)N[C@@H](CO)C(=O)N[C@@H](CCCCN)C(=O)N[C@@H](CC(=O)O)C(=O)N[C@@H](CSSC[C@@H](C(=O)N[C@@H](CCCCN)C(=O)N[C@H]3CSSC[C@@H](C(N)=O)NC(=O)CNC(=O)[C@H](Cc4ccc(O)cc4)NC3=O)NC(=O)[C@H](CO)NC(=O)[C@H](CCCCN)NC(=O)[C@H](CC(N)=O)NC1=O)C(=O)N[C@@H](Cc1ccc(O)cc1)C(=O)N[C@@H](C)C(=O)N1CCC[C@H]1C(=O)N[C@H]1CSSC[C@H](NC(=O)CNC(=O)[C@H]([C@@H](C)O)NC(=O)[C@H](CCC(N)=O)NC(=O)[C@H](CCCCN)NC(=O)[C@H](CCCNC(=N)N)NC1=O)C(=O)N1CCC[C@H]1C(=O)N[C@@H](CC(N)=O)C(=O)N[C@@H](C)C(=O)N[C@@H](CCCCN)C(=O)N2` [MTX, Maurotoxin] (HELM PEPTIDE1{V.S.C.T.G.S.K.D.C.Y.A.P.C.R.K.Q.T.G.C.P.N.A.K.C.I.N.K.S.C.K.C.Y.G.C.[am]}$PEPTIDE1,PEPTIDE1,3:R3-24:R3|PEPTIDE1,PEPTIDE1,9:R3-29:R3|PEPTIDE1,PEPTIDE1,13:R3-19:R3|PEPTIDE1,PEPTIDE1,31:R3-34:R3$$$V2.0; N-terminus and C-terminus assumed), the entry is “negligible binding”.
For the compound `CC[C@H](C)[C@@H]1NC(=O)[C@@H](NC(=O)[C@H](CO)NC(=O)[C@@H](N)CCCNC(=N)N)CSSC[C@@H](C(=O)O)NC(=O)[C@H]([C@@H](C)O)NC(=O)CNC(=O)[C@@H]2CSSC[C@@H]3NC(=O)[C@H](CCC(N)=O)NC(=O)[C@H](Cc4ccccc4)NC(=O)[C@H](C)NC(=O)[C@H]([C@@H](C)O)NC(=O)[C@H](CSSC[C@H](NC(=O)[C@H](Cc4ccccc4)NC(=O)[C@H](CO)NC(=O)[C@H](CC(C)C)NC(=O)[C@H](CCCNC(=N)N)NC(=O)[C@H](Cc4ccc(O)cc4)NC(=O)[C@H](CCCCN)NC(=O)[C@H](CCSC)NC(=O)[C@H](CO)NC(=O)[C@H](Cc4c[nH]cn4)NC(=O)[C@H](CCCCN)NC3=O)C(=O)N[C@@H](CCCNC(=N)N)C(=O)N[C@@H](CCCCN)C(=O)N[C@@H]([C@@H](C)O)C(=O)N2)NC(=O)[C@H](CCCNC(=N)N)NC(=O)[C@H](CO)NC(=O)[C@H](CCCCN)NC(=O)[C@@H]2CCCN2C(=O)[C@H]([C@@H](C)CC)NC(=O)[C@H]([C@@H](C)O)NC(=O)[C@H](CC(=O)O)NC1=O` [ShK, Stichodactyla toxin], the “phage binding to KcsA-Kv1.1 T+F, in words” value is recorded as “ShK > KTX1”.

(Values after PMC11002876, “KcsA-Kv1.x chimeras with complete ligand-binding sites provide improved predictivity for screening selective Kv1.x blockers” (The Journal of Biological Chemistry, 2024).)
